How the values were obtained:
[1] = target: KDR (phospho-KDR, VEGF165-stimulated HUVEC cells) (Homo sapiens (Human), UniProt P35968); test: KDR autophosphorylation ELISA in HUVEC cells (Example G); format: cell-based; settings: cellular activity; KDR autophosphorylation ELISA in HUVEC cells
Method in brief: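 Inhibition of VEGF165-driven KDR autophosphorylation is measured in primary human umbilical vein endothelial cells after 24 h serum deprivation. Compound preincubation lasts 1 h before a 5-minute challenge with 100 ng/mL ligand, and phosphorylated receptor is then measured by ELISA in the lysates.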

[2] = target: Mer (phospho-Mer, MERTK-transfected 293A cells) (Homo sapiens (Human), UniProt Q12866); test: Mer autophosphorylation ELISA in transient transfected 293A cells (Example H); format: cell-based; settings: cellular activity; Mer autophosphorylation ELISA in transient transfected 293A cells
Mer (phospho-Mer, MERTK-transfected 293A cells), sequence (Q12866 21-999): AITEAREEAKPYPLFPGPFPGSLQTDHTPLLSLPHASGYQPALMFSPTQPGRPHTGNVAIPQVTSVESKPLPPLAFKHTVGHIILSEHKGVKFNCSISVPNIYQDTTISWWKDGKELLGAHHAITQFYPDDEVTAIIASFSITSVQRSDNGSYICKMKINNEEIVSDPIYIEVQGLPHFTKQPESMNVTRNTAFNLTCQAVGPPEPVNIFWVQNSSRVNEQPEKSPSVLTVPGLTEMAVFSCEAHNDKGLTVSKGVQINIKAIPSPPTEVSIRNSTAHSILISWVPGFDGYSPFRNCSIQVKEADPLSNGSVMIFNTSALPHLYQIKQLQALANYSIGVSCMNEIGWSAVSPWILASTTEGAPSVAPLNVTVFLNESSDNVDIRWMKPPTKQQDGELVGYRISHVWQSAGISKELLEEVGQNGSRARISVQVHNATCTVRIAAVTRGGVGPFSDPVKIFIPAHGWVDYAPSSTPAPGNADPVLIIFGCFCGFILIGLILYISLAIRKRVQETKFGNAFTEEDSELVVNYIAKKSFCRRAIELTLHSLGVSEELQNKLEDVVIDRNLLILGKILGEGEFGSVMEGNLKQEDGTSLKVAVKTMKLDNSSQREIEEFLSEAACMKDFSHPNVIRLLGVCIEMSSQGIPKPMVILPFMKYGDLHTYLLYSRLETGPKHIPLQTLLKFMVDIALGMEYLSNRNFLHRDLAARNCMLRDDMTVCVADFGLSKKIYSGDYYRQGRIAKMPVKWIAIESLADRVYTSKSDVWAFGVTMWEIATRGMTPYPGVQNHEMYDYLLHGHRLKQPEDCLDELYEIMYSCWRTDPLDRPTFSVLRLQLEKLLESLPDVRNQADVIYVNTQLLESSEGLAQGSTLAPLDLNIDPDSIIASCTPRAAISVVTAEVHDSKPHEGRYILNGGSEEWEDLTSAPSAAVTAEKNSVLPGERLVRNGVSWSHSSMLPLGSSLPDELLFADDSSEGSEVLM
Method in brief: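 IC50 from phospho-Mer ELISA of MERTK-transfected 293A cell lysates after 1 h treatment with serially diluted compound in serum-free medium.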

[3] = target: Human MER (residues 528-999) (Homo sapiens (Human), UniProt Q12866); test: Human Mer kinase assay, HTRF KinEase (Example C-2); format: biochemical; settings: protocol of Example C-2 (other compounds)
Human MER (residues 528-999), sequence (Q12866 528-999): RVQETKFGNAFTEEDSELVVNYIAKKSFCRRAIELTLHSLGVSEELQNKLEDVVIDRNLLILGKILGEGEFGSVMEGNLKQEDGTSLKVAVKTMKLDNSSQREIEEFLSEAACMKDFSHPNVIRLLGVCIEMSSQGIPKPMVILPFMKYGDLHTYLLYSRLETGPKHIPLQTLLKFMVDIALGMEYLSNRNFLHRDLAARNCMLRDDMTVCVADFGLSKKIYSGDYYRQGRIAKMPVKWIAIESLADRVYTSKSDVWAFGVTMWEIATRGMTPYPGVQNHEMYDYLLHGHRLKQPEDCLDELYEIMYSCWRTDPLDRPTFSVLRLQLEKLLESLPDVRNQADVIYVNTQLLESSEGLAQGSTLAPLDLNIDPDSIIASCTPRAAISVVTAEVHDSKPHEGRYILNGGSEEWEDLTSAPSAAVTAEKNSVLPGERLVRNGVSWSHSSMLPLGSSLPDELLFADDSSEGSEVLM
Method in brief: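 Recombinant MER 528-999 (1 ng/well) in buffer with 5 mM MgCl2 and 1 mM DTT was reacted with biotinylated peptide and ATP at Km (40 μM) for 60 min at room temperature. EDTA stop with SA-XL665 and Eu3+ TK antibody, then 665/620 nm HTRF read; IC50 from 4-parameter fit.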

[4] = target: Human MET (residues 956-1390) (Homo sapiens (Human), UniProt P08581); test: Human Met kinase assay, HTRF KinEase (Example D-2); format: biochemical; settings: protocol of Example D-2 (other compounds); read-out: c-Met IC50
Human MET (residues 956-1390), sequence (P08581 956-1390): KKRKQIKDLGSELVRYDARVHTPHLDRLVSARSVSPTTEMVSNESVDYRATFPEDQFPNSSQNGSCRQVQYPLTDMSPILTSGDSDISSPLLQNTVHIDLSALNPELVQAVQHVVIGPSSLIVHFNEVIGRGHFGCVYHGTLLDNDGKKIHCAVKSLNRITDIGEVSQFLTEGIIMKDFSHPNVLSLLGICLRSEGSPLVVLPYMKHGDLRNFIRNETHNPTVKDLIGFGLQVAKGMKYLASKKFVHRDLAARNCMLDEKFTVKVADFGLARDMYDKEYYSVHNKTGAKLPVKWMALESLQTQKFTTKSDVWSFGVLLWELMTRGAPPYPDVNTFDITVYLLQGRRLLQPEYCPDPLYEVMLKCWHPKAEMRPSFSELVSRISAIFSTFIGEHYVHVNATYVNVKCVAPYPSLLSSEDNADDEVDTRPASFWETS
Method in brief: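 MET kinase domain (956-1390), 0.1 ng/well, in buffer with 5 mM MgCl2, 1 mM DTT and 1 mM MnCl2, phosphorylated a biotinylated peptide at ATP Km for 40 min at RT; 10 concentrations, 3% DMSO final. EDTA-stopped HTRF read after 60 min; IC50 from a 4-parameter logistic fit.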

KDR (phospho-KDR, VEGF165-stimulated HUVEC cells), sequence (P35968 20-1356): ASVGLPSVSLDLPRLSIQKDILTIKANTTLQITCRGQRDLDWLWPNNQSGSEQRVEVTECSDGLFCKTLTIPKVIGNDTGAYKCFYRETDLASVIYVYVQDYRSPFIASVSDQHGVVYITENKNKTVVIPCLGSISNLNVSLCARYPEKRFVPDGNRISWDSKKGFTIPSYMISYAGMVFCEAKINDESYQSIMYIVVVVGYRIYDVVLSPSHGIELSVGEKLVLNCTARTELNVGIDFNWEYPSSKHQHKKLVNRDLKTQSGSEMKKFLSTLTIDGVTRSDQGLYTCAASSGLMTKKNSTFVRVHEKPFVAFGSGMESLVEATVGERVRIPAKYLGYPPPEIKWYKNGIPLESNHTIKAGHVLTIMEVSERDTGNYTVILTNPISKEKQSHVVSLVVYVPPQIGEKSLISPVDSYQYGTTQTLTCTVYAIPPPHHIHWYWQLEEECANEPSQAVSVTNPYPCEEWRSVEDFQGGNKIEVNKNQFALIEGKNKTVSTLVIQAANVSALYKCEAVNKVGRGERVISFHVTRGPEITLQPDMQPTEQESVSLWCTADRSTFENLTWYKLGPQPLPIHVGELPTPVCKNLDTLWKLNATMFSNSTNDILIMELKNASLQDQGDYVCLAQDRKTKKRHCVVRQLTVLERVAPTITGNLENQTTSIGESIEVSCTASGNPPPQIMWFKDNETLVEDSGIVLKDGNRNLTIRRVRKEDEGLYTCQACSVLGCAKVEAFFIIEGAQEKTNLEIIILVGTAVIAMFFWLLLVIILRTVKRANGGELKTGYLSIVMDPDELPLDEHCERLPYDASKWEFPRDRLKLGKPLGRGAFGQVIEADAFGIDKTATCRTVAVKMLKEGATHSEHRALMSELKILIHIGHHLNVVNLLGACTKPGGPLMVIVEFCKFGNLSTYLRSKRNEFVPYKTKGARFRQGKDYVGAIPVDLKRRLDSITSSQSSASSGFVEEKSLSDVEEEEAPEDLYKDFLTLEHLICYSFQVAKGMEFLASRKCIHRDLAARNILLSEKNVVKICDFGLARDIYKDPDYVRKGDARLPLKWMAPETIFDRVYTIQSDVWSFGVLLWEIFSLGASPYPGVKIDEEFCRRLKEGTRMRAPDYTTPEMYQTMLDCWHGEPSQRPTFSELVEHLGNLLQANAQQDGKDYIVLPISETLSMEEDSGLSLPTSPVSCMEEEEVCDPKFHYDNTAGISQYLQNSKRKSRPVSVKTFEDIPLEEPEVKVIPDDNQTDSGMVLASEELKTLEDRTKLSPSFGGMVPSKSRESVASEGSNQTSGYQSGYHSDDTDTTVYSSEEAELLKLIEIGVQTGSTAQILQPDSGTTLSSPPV

| IC50 [1] [nM] | IC50 [2] [nM] | IC50 [3] [nM] | IC50 [4] [nM] | SMILES |
| --- | --- | --- | --- | --- |
| 100 to 300 | < 100 | < 100 | < 100 | COc1ccc2c(Oc3ccc(NC(=O)c4cn(C(C)C)c(C)c(-c5ccc(F)cc5)c4=O)cc3F)ccnc2c1 [Compound 106, N-[3-Fluoro-4-(7-methoxyquinolin-4-yl)oxyphenyl]-5-(4-fluorophenyl)-6-methyl-4-oxo-1-propan-2-ylpyridine-3-carboxamide] |
| < 100 | < 100 | < 100 | < 100 | COc1cc2nccc(Oc3ccc(NC(=O)c4cnc(C)c(-c5ccc(F)cc5)c4O)cc3F)c2cc1OC [Compound 109, N-[4-(6,7-Dimethoxyquinolin-4-yl)oxy-3-fluorophenyl]-5-(4-fluorophenyl)-4-hydroxy-6-methylpyridine-3-carboxamide] |
| < 100 | < 100 | < 100 | < 100 | COc1cc2nccc(Oc3ccc(NC(=O)c4cn(CCO)cc(-c5ccc(F)cc5)c4=O)cc3F)c2nc1OC [Compound 117, N-[4-[(6,7-Dimethoxy-1,5-naphthyridin-4-yl)oxy]-3-fluorophenyl]-5-(4-fluorophenyl)-1-(2-hydroxyethyl)-4-oxopyridine-3-carboxamide] |
| > 300 | < 100 | < 100 | < 100 | COc1cnc2c(Oc3ccc(NC(=O)c4cn(C)cc(-c5ccc(F)cc5)c4=O)cc3F)ccnc2c1 [Compound 112, N-[3-Fluoro-4-[(7-methoxy-1,5-naphthyridin-4-yl)oxy]phenyl]-5-(4-fluorophenyl)-1-methyl-4-oxopyridine-3-carboxamide] |
| > 300 | < 100 | < 100 | 100 to 300 | COc1ccc2nccc(Oc3ccc(NC(=O)c4cn(C)c(C)c(-c5ccc(F)cc5)c4=O)cc3F)c2n1 [Compound 113, N-[3-Fluoro-4-[(6-methoxy-1,5-naphthyridin-4-yl)oxy]phenyl]-5-(4-fluorophenyl)-1,6-dimethyl-4-oxopyridine-3-carboxamide] |
| < 100 | < 100 | < 100 | < 100 | COc1ccc2c(Oc3ccc(NC(=O)c4cnc(C)c(-c5ccc(F)cc5)c4O)cc3F)ccnc2c1 [Compound 105, N-[3-Fluoro-4-(7-methoxyquinolin-4-yl)oxyphenyl]-5-(4-fluorophenyl)-4-hydroxy-6-methylpyridine-3-carboxamide] |
| < 100 | < 100 | < 100 | < 100 | COc1cc2nccc(Oc3ccc(NC(=O)c4c(C)nc(C)n(-c5ccc(F)cc5)c4=O)cc3F)c2nc1OC [Compound 101, N-[4-[(6,7-Dimethoxy-1,5-naphthyridin-4-yl)oxy]-3-fluorophenyl]-1-(4-fluorophenyl)-2,4-dimethyl-6-oxopyrimidine-5-carboxamide] |
| < 100 | < 100 | < 100 | < 100 | COc1cc2nccc(Oc3ccc(NC(=O)c4cncc(-c5ccc(F)cc5)c4O)cc3)c2nc1OC [Compound 118, N-[4-[(6,7-Dimethoxy-1,5-naphthyridin-4-yl)oxy]phenyl]-5-(4-fluorophenyl)-4-hydroxypyridine-3-carboxamide] |
| < 100 | < 100 | < 100 | < 100 | COc1cc2nccc(Oc3ccc(NC(=O)c4c[nH]c(=O)n(-c5ccc(F)cc5)c4=O)cc3F)c2nc1OC [Compound 102, N-[4-[(6,7-Dimethoxy-1,5-naphthyridin-4-yl)oxy]-3-fluorophenyl]-3-(4-fluorophenyl)-2,4-dioxo-1H-pyrimidine-5-carboxamide] |

More lines, now with the values behind:

| SMILES | IC50 [1] [nM] | IC50 [2] [nM] | IC50 [3] [nM] | IC50 [4] [nM] |
| --- | --- | --- | --- | --- |
| COc1cc2nccc(Oc3ccc(NC(=O)c4cnc(C)n(-c5ccc(F)cc5)c4=O)cc3F)c2nc1OC [Compound 97, N-[4-[(6,7-Dimethoxy-1,5-naphthyridin-4-yl)oxy]-3-fluorophenyl]-1-(4-fluorophenyl)-2-methyl-6-oxopyrimidine-5-carboxamide] | < 100 | < 100 | < 100 | < 100 |
| CCn1cc(C(=O)Nc2ccc(Oc3ccnc4cc(OC)c(OC)nc34)c(F)c2)c(=O)c(-c2ccc(F)cc2)c1 [Compound 116, N-[4-[(6,7-Dimethoxy-1,5-naphthyridin-4-yl)oxy]-3-fluorophenyl]-1-ethyl-5-(4-fluorophenyl)-4-oxopyridine-3-carboxamide] | < 100 | < 100 | < 100 | < 100 |
| COc1cnc2c(Oc3ccc(NC(=O)c4cn(C)c(C)c(-c5ccc(F)cc5)c4=O)cc3)ccnc2c1 [Compound 111, 5-(4-Fluorophenyl)-N-[4-[(7-methoxy-1,5-naphthyridin-4-yl)oxy]phenyl]-1,6-dimethyl-4-oxopyridine-3-carboxamide] | > 300 | < 100 | < 100 | < 100 |
| COc1ccc2c(Oc3ccc(NC(=O)c4cnc(C)c(-c5ccc(F)cc5)c4O)cc3)ccnc2c1 [Compound 108, 5-(4-Fluorophenyl)-4-hydroxy-N-[4-(7-methoxyquinolin-4-yl)oxyphenyl]-6-methylpyridine-3-carboxamide] | < 100 | < 100 | < 100 | < 100 |
| COc1cc2nccc(Oc3ccc(NC(=O)c4cnc(N(C)C)n(-c5ccc(F)cc5)c4=O)cc3F)c2nc1OC [Compound 100, N-[4-[(6,7-Dimethoxy-1,5-naphthyridin-4-yl)oxy]-3-fluorophenyl]-2-(dimethylamino)-1-(4-fluorophenyl)-6-oxopyrimidine-5-carboxamide] | < 100 | < 100 | < 100 | < 100 |
| COc1cc2nccc(Oc3ccc(NC(=O)c4cn(C(C)C)c(C)c(-c5ccc(F)cc5)c4=O)cc3)c2nc1OC [Compound 115, N-[4-[(6,7-Dimethoxy-1,5-naphthyridin-4-yl)oxy]phenyl]-5-(4-fluorophenyl)-6-methyl-4-oxo-1-propan-2-ylpyridine-3-carboxamide] | > 300 | < 100 | < 100 | < 100 |
| CCn1cc(C(=O)Nc2ccc(Oc3ccnc4cc(OC)ccc34)c(F)c2)c(=O)c(-c2ccc(F)cc2)c1C [Compound 107, 1-Ethyl-N-[3-fluoro-4-(7-methoxyquinolin-4-yl)oxyphenyl]-5-(4-fluorophenyl)-6-methyl-4-oxopyridine-3-carboxamide] | 100 to 300 | < 100 | < 100 | < 100 |
| COc1cc2nccc(Oc3ccc(NC(=O)c4c(C)ncn(-c5ccc(F)cc5)c4=O)cc3F)c2nc1OC [Compound 98, N-[4-[(6,7-Dimethoxy-1,5-naphthyridin-4-yl)oxy]-3-fluorophenyl]-1-(4-fluorophenyl)-4-methyl-6-oxopyrimidine-5-carboxamide] | < 100 | < 100 | < 100 | < 100 |

Source: patent US12371428B2 (Exelixis, Inc., priority 2019, dated 2025)
